Measured values taken from patent publication US20260315434A1, “USE OF GUAIACOL SESQUITERPENE LACTONE DERIVATIVES” (NANJING UNIVERSITY OF CHINESE MEDICINE, priority 2023, published 2026).
Marks after values point to notes of the source that are not given here.

Key:
Hepa1-6 cells = experiment: Antitumor effect in Hepa1-6 mouse hepatocellular carcinoma subcutaneous xenograft model; assay type: in vivo, C57BL/6 mice; conditions: mouse, in vivo, po
H22 cells = experiment: Antitumor effect in H22 mouse hepatocellular carcinoma subcutaneous xenograft model; assay type: in vivo, BALB/c mice
T cells = experiment: Proportion of T cells in tumor and spleen of H22 xenograft mice (flow cytometry); assay type: in vivo, BALB/c mice
Experimental: Once all tumors were dissected, nail-sized tumor pieces were transferred to 1.5 mL Eppendorf tubes and minced with scissors. Transfer the minced tumor tissue suspension to a 15 mL centrifuge tube containing 3-5 mL of digestive enzymes (Collagenase IV 1 mg/mL, Hyaluronidase 1 mg/mL, DNase 120 U/mL). Incubate at 37° C. on a shaking incubator at 200 rpm for 1 hour. After digestion, pass the mixture through a 200-mesh sieve to obtain the tumor cell suspension. Centrifuge the resulting tumor suspension at 1600 rpm for 5 min, aspirate the supernatant, resuspend cells in 1 mL of 1×PBS per tube. Transfer the cell suspension to a 1.5 mL Eppendorf tube, centrifuge at 1600 rpm for 5 min, remove the supernatant, resuspend cells in 100 μL of 1×PBS per tube, add 1 μL of dead/live dye to each tube, mix thoroughly, and incubate at room temperature in the dark for 15 min. […] Position the spleen on a 200-mesh cell strainer. Gently press the spleen using a 10 mL syringe needle. […] Transfer the splenocyte suspension into a 15 mL centrifuge tube. Centrifuge at 1600 rpm for 5 min to collect cells. Wash once with 1×PBS. Add 3 mL red blood cell lysis buffer (diluted with ddH2O) to each tube and incubate for 5 min. After lysis, add 10 mL 1×PBS to each tube to terminate lysis. Centrifuge at 1600 rpm for 5 min. Add 1 mL 1×PBS to each 15 mL centrifuge tube, transfer to 1.5 mL EP tubes, and centrifuge at 1600 rpm for 5 min. Add 1×PBS to each tube containing stained tumor cells and lysed spleen cells for one wash, centrifuge at 1600 rpm for 5 min, and remove the supernatant. Resuspend tumor cells and spleen cells separately in 100 μL 1×PBS. Add 1 μL FcX™ antibody to each tube and incubate at room temperature in the dark for 10 min. After incubation, sequentially add 1 μL each of CD45, CD3, and CD8 antibodies to each tube. Incubate at 4° C. in the dark for 30 min. After staining, wash once with 1 mL PBS. Centrifuge at 1600 rpm for 5 min. Discard the supernatant. Resuspend cells in 300 μL 1×PBS. Filter the cell suspension into a flow cytometry tube and proceed to instrument analysis.

CT26 cells = experiment: Antitumor effect in CT26 colon cancer mouse subcutaneous model; assay type: in vivo, BALB/c mice
4T1 cells = experiment: Antitumor effect in 4T1 mouse mammary carcinoma xenograft model; assay type: in vivo, BALB/c mice
Experimental: 4T1 cells were cultured and expanded in vitro. […] A 100 μL aliquot of this suspension was injected subcutaneously into the left forelimb axilla of female BALB/c mice. […] Daily oral administration was performed for 3 weeks. During the treatment period, mouse body weight and tumor diameter were measured daily. At the end of the experiment, mice were euthanized by cervical dislocation, and tumors were removed for weighing. Tumor volume (TV) was calculated using the formula: TV=½×a×b^2, where a represents the longest diameter of the tumor and b represents the shortest diameter.

[1] = test system: renal injury markers (Ngal, Havcr1) in kidney tissue; experiment: Folic acid-induced acute kidney injury, renal injury marker mRNA; assay type: in vivo, C57BL/6 mice; set-up: scale not given here; conditions: folic acid acute model, 1 mg/kg oral; 1 mg/kg
Experimental: (§1) Except for the normal group, all other mice were administered folic acid (250 mg/kg) dissolved in 0.9% NaHCO3 solution via intraperitoneal injection to establish an acute kidney injury model.
(§2) The blood was allowed to stand at room temperature for 2 hours, then centrifuged at 3000 rpm for 20 minutes. Serum was aspirated, aliquoted, and stored at −70° C. for future use. Following blood collection, euthanize mice by cervical dislocation. Perform laparotomy to remove kidneys, dissect out perirenal fat and capsules. […] Paraffin-embedded specimens undergo HE staining; remaining tissue is stored at −70° C. for future use.

[2] = test system: fibrosis-related factors (α-Sma, Col1a1, Tgfb1) in kidney tissue; experiment: Folic acid-induced kidney injury, renal fibrosis-related factor mRNA; assay type: in vivo, C57BL/6 mice; conditions: folic acid model, 1 mg/kg oral; 1 mg/kg
Experimental: as §1, §2

[3] = test system: renal injury markers (Ngal, Havcr1) in kidney tissue; experiment: Unilateral ureteral ligation (UUO) chronic kidney injury, renal injury marker mRNA; assay type: in vivo, C57BL/6 mice; set-up: unit not given here; conditions: UUO chronic model, 1 mg/kg oral; 1 mg/kg
Description: (§3) Chronic Kidney Injury: Mice were randomly divided into five groups. […] Except for the sham-operated mice in the normal group (where only the left ureter was exposed without further manipulation), all other mice underwent unilateral ureteral ligation to establish a chronic kidney injury model as follows: The abdominal skin was disinfected with iodine solution followed by alcohol. An incision was made, and the abdominal layers were dissected sequentially. The left ureter was fully exposed and dissected. A double ligation was performed at the bladder-proximal end of the left ureter using absorbable suture material, followed by closure.
as §2

[4] = test system: inflammatory cytokines (TNF, IL-6, IL-1) in renal tissue; experiment: UUO chronic kidney injury, renal inflammatory factor mRNA; assay type: in vivo, C57BL/6 mice; set-up: unit not given here; conditions: UUO chronic model, 1 mg/kg oral; 1 mg/kg
Description: as §3, §2

[5] = test system: fibrosis-related factors (α-Sma, Col1a1, Tgfb1) in kidney tissue; experiment: UUO chronic kidney injury, renal fibrosis-related factor mRNA; assay type: in vivo, C57BL/6 mice; set-up: unit not given here; conditions: UUO chronic model, 1 mg/kg oral; 1 mg/kg
Description: as §3, §2

[6] = 40 μmol/kg/day, oral, 2 weeks, H22 xenograft
[7] = 80 μmol/kg/day, oral, 3 weeks, CT26
[8] = 40 μmol/kg/day, oral, 3 weeks, 4T1

## C=C1C(=O)O[C@@H]2[C@H]3C(C)=CC[C@@]34O[C@@]4(C)CC[C@@H]12 [Arg, Arglabin, reference compound]
Hepa1-6 cells
  Tumor weight: 0.04 ± 0.03 g
H22 cells; mouse, in vivo, po
  tumor-inhibiting effect, H22: tumor-inhibiting effects
T cells; mouse, in vivo
  proportion of T cells in tumor tissues and spleens: significantly increased
CT26 cells; mouse, in vivo, po
  tumor-inhibiting effect, CT26: tumor-inhibiting effects
4T1 cells; mouse, in vivo, po
  antitumor effect, 4T1: no significant antitumor effects

## CN(C)C[C@@H]1C(=O)O[C@H]2[C@H]1CC[C@@]1(C)C[C@]13CC[C@@](C)(O)[C@H]23 [Compound 20]
[1]
  Havcr1 mRNA expression, kidney: 62.86 ± 12.20
  Ngal mRNA expression, kidney: 13.05 ± 1.82
[2]
  Col1a1 mRNA expression, kidney: 1.18 ± 0.15
  Tgfb1 mRNA expression, kidney: 0.98 ± 0.27
  α-Sma mRNA expression, kidney: 1.11 ± 0.17
[3]
  Havcr1 mRNA expression, kidney: 6.29 ± 2.43
  Ngal mRNA expression, kidney: 16.14 ± 2.74
[4]
  Il1 mRNA expression, kidney: 2.77 ± 0.40
  Il6 mRNA expression, kidney: 3.69 ± 1.26
  Tnf mRNA expression, kidney: 5.09 ± 0.66
[5]
  Col1a1 mRNA expression, kidney: 7.30 ± 0.90
  Tgfb1 mRNA expression, kidney: 1.44 ± 0.21
  α-Sma mRNA expression, kidney: 1.26 ± 0.18
H22 cells; [6]
  Tumor Suppression Rate (%): 70.86%
  Tumor weight: 4.88 ± 0.87 g
H22 cells; oral, 2 weeks, result in words
  tumor-inhibiting effect, H22: tumor-inhibiting effects
T cells; 40 μmol/kg/day, oral, 2 weeks, spleen, flow cytometry
  Spleen T cells (%): 37.19 ± 6.99 %
T cells; 40 μmol/kg/day, oral, 2 weeks, tumor, flow cytometry
  Tumor T cells (%): 29.44 ± 6.07 %
T cells; compared with solvent control, result in words
  proportion of T cells in tumor tissues and spleens: significantly increased
CT26 cells; [7]
  Tumor inhibition rate (%): 43.36%*
  Tumor weight: 4.62 ± 1.29 g
CT26 cells; oral, 3 weeks, result in words
  tumor-inhibiting effect, CT26: tumor-inhibiting effects
4T1 cells; [8]
  Tumor inhibition rate (%): −15.24%
  Tumor weight: 2.09 ± 0.60 g
4T1 cells; oral, 3 weeks, result in words
  antitumor effect, 4T1: no significant antitumor effects
